Patent US20080033274A1, “Device and Method for Monitoring the Functioning of the Lower Esophageal Sphincter” (Altana Pharma AG, priority 2004, published 2008)

System: transient lower esophageal sphincter relaxations (TLESRs) in the conscious dog
Experiment: Number of TLESRs (hydrogen marker gas eructations) in gastric fistula dog under barostat gastric pressure
Format: in vivo
Conditions: 7 μmol/kg i.v., 12 mm Hg to the stomach
Excerpt: The various aspects of the invention were studied with fistula dogs. The fistula is inserted into the stomach of the dog by methods known to the expert, for example as described in Postius S, Braeuer U. Loss of circadian rhythm in luminal acidity of canine stomach by implantation of a gastric fistula. Digestion. 1995; 56(1):3540.
The method according to the invention was used to quantify the number of transient lower esophageal sphincter relaxations (TLESRs, leading to gas refluxes) in the conscious dog, which are provoked by the introduction of hydrogen gas in the stomach. The method can be used with fasted or fed animals and it is not depending on the status of gastric acid secretion.
For the assessment of TLESRs, the gastric fistula dogs were temporarily connected via the gastric fistula to a barostat which continuously measures the gastric pressure and continuously approximates during the monitoring of the marker gas a target pressure by sucking or pumping a gas mixture of air and hydrogen, comprising 0.2-3% hydrogen, whereby 3% of hydrogen was yielding the highest sensitivity.
A target pressure was selected that causes an appropriate number of TLESRs, usually for a period of 30 min. […] The quantification of TLESRs resulting in eructations was performed by continuous collection of the gas in front of and in the middle of nose and mouth of the dog with an open measuring probe head. This gas, comprising hydrogen from the gastric gas mixture, which eructed if the dog is belching, was sucked to a hydrogen sensor (Model used: UST 2330, UST—Umweltsensortechnik GmbH, 98716 Geschwenda, Germany) registering the hydrogen concentration. Significant enhancement in hydrogen concentration in the collected gas was defined to represent a TLESR caused by an eruction. […] Some eructions occurred at 6 mm Hg and lots were measured above 12 mm Hg. However, above 12-14 mm Hg vomiting might be induced as well.
The study design was as follows: […]
0-30 minutes: detection of the number of TLESR by monitoring the concentration of hydrogen detected in the sensor […]

## NCC(CC(=O)O)c1ccc(Cl)cc1 (stereo not drawn) [Baclofen]
Time period 0-10 minutes
  Number of TLESR detected in the time period indicated: 0.75
Time period 10-20 minutes
  Number of TLESR detected in the time period indicated: 0.25
Time period 20-30 minutes
  Number of TLESR detected in the time period indicated: 1.75
